Measured values: ChEMBL document CHEMBL6096676, “TarIKGC: A Target Identification Tool Using Semantics-Enhanced Knowledge Graph Completion with Application to CDK2 Inhibitor Discovery” (J Med Chem, 2025)

Key:
[1] = Antiproliferative activity against human THLE-2 cells measured after 48 to 72 hrs by CCK-8 method
MKN-28 = experiment: Antiproliferative activity against human MKN-28 cells measured after 48 to 72 hrs by CCK-8 method
[2] = Antiproliferative activity against HEK293T cells measured after 48 to 72 hrs by CCK-8 method; conditions: human
PC-9 = experiment: Antiproliferative activity against human PC-9 cells measured after 48 to 72 hrs by CCK-8 method
SW-620 = experiment: Antiproliferative activity against human SW620 cells measured after 48 to 72 hrs by CCK-8 method
AGS = experiment: Antiproliferative activity against human AGS cells measured after 48 to 72 hrs by CCK-8 method
Huh-7 = experiment: Antiproliferative activity against human Huh-7 cells measured after 48 to 72 hrs by CCK-8 method

COc1ccc(CNc2nc(N(CCO)CCO)nc3c2ncn3C(C)C)cc1
IC50 [1]: 15 µM | IC50 (MKN-28): 8.73 µM | IC50 [2]: 11.5 µM | IC50 (PC-9): 7.28 µM | IC50 (SW-620): 2.07 µM | IC50 (AGS): 6.84 µM | IC50 (Huh-7): 5.78 µM
